Laboratory results reported in US10031417B2, “Compound, colorant including the same, positive photosensitive resin composition including the same and color filter” (SAMSUNG SDI CO., LTD., priority 2016, dated 2018).

Assay: Solubility measurement in diluting solvents
Assay type: physicochemical
Settings: 25° C., 100 rpm, 1 hour, 0.5 g of compound added
Protocol: 0.5 g of each compound according to Synthesis Examples 1 to 3 was respectively added to diluting solvents (MeOH, CH2Cl2, cyclohexanone), each solution was stirred with a rotary mixer (Mixrotar VMR-5, Iuchi Seieido Co., Ltd.) at 25° C. and 100 rpm for 1 hour, and then, the dissolution state of each compound (the amount of the compound dissolved in the solvents) was examined, and the results are provided in Table 1.

| SMILES | Amount of dissolved compound (CH2Cl2) [% wt %] | Amount of dissolved compound (Cyclohexanone) [% wt %] | Amount of dissolved compound (MeOH) [% wt %] |
| --- | --- | --- | --- |
| CCN(CCOC(=O)Nc1ccccc1)c1ccc2c(-c3ccccc3S(=O)(=O)[O-])c3ccc(=[N+](CC)CC)cc-3oc2c1 [Chemical Formula 7] | >7 | 2 | >7 |
| CCN(CCOC(=O)NC1CCCCC1)c1ccc2c(-c3ccccc3S(=O)(=O)[O-])c3cc/c(=[N+](/CC)CCOC(=O)NC4CCCCC4)cc-3oc2c1 [Chemical Formula 9] | >10 | 5 | >10 |
| CCN(CCOC(=O)NC(C)(C)C)c1ccc2c(-c3ccccc3S(=O)(=O)[O-])c3ccc(=[N+](CC)CC)cc-3oc2c1 [Chemical Formula 5] | >7 | 3 | >7 |
| CCN(CCOC(=O)Nc1ccccc1)c1ccc2c(-c3ccccc3S(=O)(=O)[O-])c3cc/c(=[N+](/CC)CCOC(=O)Nc4ccccc4)cc-3oc2c1 [Chemical Formula 10] | >10 | 3 | >10 |
| CCN(CCOC(=O)NC1CCCCC1)c1ccc2c(-c3ccccc3S(=O)(=O)[O-])c3ccc(=[N+](CC)CC)cc-3oc2c1 [Chemical Formula 6] | >7 | 3 | >7 |
| CCN(CCOC(=O)NC(C)(C)C)c1ccc2c(-c3ccccc3S(=O)(=O)[O-])c3cc/c(=[N+](/CC)CCOC(=O)NC(C)(C)C)cc-3oc2c1 [Chemical Formula 8] | >10 | 5 | >10 |
